Converted amounts (≈) assume the structure as drawn.
How the values were obtained:
[1] = Half life in CD1 mouse at 10 mg/kg, ip measured up to 7 hrs by LC-MS/MS analysis; assay type: ADME, organism-based; details: in vivo
[2] = Half life in human pooled liver microsomes at 10 uM incubated in shaking water bath measured up to 60 mins in presence of NADPH by HPLC-MS/MS analysis; assay type: ADME, Microsome
[3] = Cmax in brain of CD1 mouse at 10 mg/kg, ip measured up to 7 hrs by LC-MS/MS analysis; assay type: ADME, organism-based; parameters: dose 10 mg/kg, route intraperitoneal
[4] = AUC (0 to t) in CD1 mouse at 10 mg/kg, ip measured up to 7 hrs by LC-MS/MS analysis; assay type: ADME, organism-based; parameters: time < 7 hr, dose 10 mg/kg, route intraperitoneal; details: in vivo
[5] = AUC (0 to infinity) in CD1 mouse at 10 mg/kg, ip measured up to 7 hrs by LC-MS/MS analysis; assay type: ADME, organism-based; parameters: dose 10 mg/kg, time infinity, route intraperitoneal; details: in vivo
[6] = Aqueous solubility of compound in PBS buffer at 200 uM and pH 7.4 incubated for 24 hrs under shaking condition by chromatographic analysis; assay type: physicochemical
[7] = Tmax in CD1 mouse at 10 mg/kg, ip measured up to 7 hrs by LC-MS/MS analysis; assay type: ADME, organism-based; details: in vivo
[8] = Cmax in plasma of CD1 mouse at 10 mg/kg, ip measured up to 7 hrs by LC-MS/MS analysis; assay type: ADME, organism-based; parameters: dose 10 mg/kg, route intraperitoneal
[9] = Half life in CD mouse pooled liver microsomes at 10 uM incubated in shaking water bath measured up to 60 mins in presence of NADPH by HPLC-MS/MS analysis; assay type: ADME, Microsome

half-life [1]: 2 h
half-life at 10 µM [2]: > 1 h
Cmax [3]: 21.1 ng/g
AUC(0-t) at 7 h [4]: 781 ng·h/mL
AUC(0-inf) [5]: 791 ng·h/mL
solubility at 24 h, 200 µM [6]: 200 µM (≈ 73.3 µg/mL)
Tmax [7]: 0.5 h
Cmax [8]: 949 ng/mL
half-life at 10 µM [9]: > 1 h
SMILES: O=C(NCC1CCOCC1)c1n[nH]c2ccc(-c3cncc(CO)c3)cc12
